Reference: PubChem BioAssay (NCI)
Values joined by “and” are separate entries in the source; they are usually repeats but may differ in a detail not shown here. Equal entries are not always repeated.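 Tested at 5 concentrations; 48 h exposure; 96-well plates; endpoints linearly interpolated, else capped at highest concentration. GI50 marks 50% less growth. At the TGI there is no net growth.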

Test system: MDA-MB-468 breast
Assay: DTP human tumour cell line panel, 48 h

Cc1nc2ccc(-n3ncc(C(=O)c4cc5ccccc5[nH]4)c3N)cc2[nH]1
GI50: 12.5 µM
TGI: 43.2 µM

CCOc1cc(Cl)c(C(C)NC(=O)c2cccc(OC)c2)cc1OCC (stereo not drawn)
GI50: 3.38 µM
TGI: 64.6 µM

O=C(/C=C(/C=C/c1cccc2[nH]ccc12)OB(F)F)/C=C/c1cccc2[nH]ccc12
GI50: 0.473 µM
TGI: 3.12 µM

C[C@@]12CC[C@@H](O)C[C@@H]1CC[C@H]1[C@H]2CC[C@@]2(C)[C@H](c3ccc(=O)oc3)CC[C@@]12O
GI50: 0.0278 µM
TGI: 0.0811 µM

C=C(C(=O)c1ccccc1)C(NC(C)(C)C)c1ccccc1 (stereo not drawn)
GI50: 0.566 µM
TGI: 1.96 µM

CC(C)n1cc(-c2ccc3c(c2)N(C)CC3)c2c(NS(=O)(=O)c3ccn(C)n3)ccnc21
GI50: 41.1 µM
TGI: > 100 µM

CCN1CCN(Cc2ccc(NC(=O)Nc3nc(-c4cc(OC)c(OC)c(OC)c4)cs3)cc2C(F)(F)F)CC1
GI50: 1.43 µM
TGI: 3.03 µM

COc1ccc(OC)c(C2=C(c3cn(C)c4ccccc34)C(=O)NC2=O)c1
GI50: > 25 µM
TGI: > 25 µM

O=S(=O)(NCCNc1nccc(-c2c(-c3ccc(F)cc3)nc3sccn23)n1)c1ccc(O)cc1
GI50: 3.37 µM
TGI: 48.2 µM

CSC1=CC(=O)c2ccccc2C1=O
GI50: 0.26 µM
TGI: 1.09 µM

COc1ccc(N=Nc2ccc(O)c(=O)cc2)cc1
GI50: 2.61 µM
TGI: 18.7 µM

CC(=O)Oc1ccc(C2OC(c3ccc4ccccc4c3OC(C)=O)=NN2C(C)=O)c(OC(C)=O)c1 (stereo not drawn)
GI50: 0.401 µM
TGI: 3.22 µM

COc1ccc(-c2nc3sccn3c2-c2ccnc(NCCNS(=O)(=O)c3ccc(C(F)(F)F)cc3)n2)cc1
GI50: 1.19 µM
TGI: 7.62 µM

COc1ccc(-c2cc(=O)c3c(OC)c4ccoc4c(/C=C/C=O)c3o2)cc1
GI50: 3.58 µM
TGI: 14.4 µM

CC(C)[C@@]12C[C@@H](OC(=O)COC(=O)c3ccccc3)[C@@](C)(O1)[C@@H]1CC[C@@H](C)[C@H]1[C@@H]2OC(=O)/C=C/c1ccccc1
GI50: > 81.2 µM
TGI: > 100 µM

NC(=O)c1c[nH]c2ncnc(N)c12
GI50: 18.8 µM
TGI: 90.1 µM

O=C1/C(=C/c2ccc(Cl)cc2)CN(Cc2cn(CCCNc3ccnc4cc(Cl)ccc34)nn2)C/C1=C\c1ccc(Cl)cc1
GI50: 1.4 µM
TGI: 3.5 µM

C[n+]1cccc(NC(=O)c2ccc3ccc4ccc(C(=O)Nc5ccc[n+](C)c5)nc4c3n2)c1
GI50: 0.252 µM
TGI: 1.29 µM

Nc1nc2ccc(CNc3ccc(C(=O)NC(CC(=O)O)C(=O)O)cc3)cc2c(=O)[nH]1 (stereo not drawn)
GI50: 9.09 µM
TGI: > 100 µM

COc1cccc2nc(Nc3cccc(NC(=O)c4ccc(N5CCN(C)CC5)c(C(F)(F)F)c4)c3)ccc12
GI50: 1.11 µM
TGI: 3.65 µM

Cn1c2c(c3ccccc31)CCN1C[C@@H]3CCCC[C@H]3C[C@@H]21
GI50: 1.77 µM
TGI: 8.73 µM

Cc1c(O)cccc1C(=O)N[C@@H](CSc1ccccc1)[C@H](O)CN1C[C@H]2CCCC[C@H]2C[C@H]1C(=O)NC(C)(C)C
GI50: 3.89 µM
TGI: 15.2 µM

CN1C(=O)C(N=Nc2ccc([N+](=O)[O-])cc2)SC1=S (stereo not drawn)
GI50: 4.33 µM and 9.92 µM
TGI: 30.6 µM and 56.6 µM

ClC(Cl)c1nc(-c2ccco2)n2nc(-c3ccccc3)cc2n1
GI50: 0.322 µM
TGI: 1.15 µM

Nc1nc(N)c2cc(S(=O)(=O)c3ccc4ccccc4c3)ccc2n1
GI50: 2.43 µM
TGI: > 100 µM

CCN1CCN(Cc2ccc(Nc3ncc(F)c(-c4cc(F)c5nc(C)n(C(C)C)c5c4)n3)nc2)CC1
GI50: 6.95 µM
TGI: 14 µM

O=C1c2ccccc2C(=O)c2c1oc1cc(O)c(Cl)cc21
GI50: 1.13 µM
TGI: 7.23 µM

COc1cc(/C=C2\CCC/C(=C\c3cc(CN4CCCC4)c(O)c(OC)c3)C2=O)cc(CN2CCCC2)c1O
GI50: 1.7 µM
TGI: 4.07 µM

CS(=O)(=O)c1nccc(-c2c(-c3ccc(F)c(OCCc4ccccc4)c3)nc3sccn23)n1
GI50: 2.57 µM
TGI: 7.36 µM

C#C[C@]1(O)CC[C@H]2[C@@H]3CC=C4c5sc(-c6ccc(C)cc6)nc5CC[C@]4(C)[C@H]3CC[C@@]21C
GI50: > 100 µM
TGI: > 100 µM

c1cc[n+](Cc2c3ccccc3cc3c2ccc2ccccc23)cc1
GI50: 0.426 µM
TGI: 2.68 µM

COc1ccc2[nH]c(C(=O)OCc3ccc4c(Br)cc(Br)c(O)c4n3)cc2c1
GI50: 0.822 µM
TGI: 2.46 µM

Cc1ccc(NC(=S)NNC(=S)Nc2ccc(C)cc2)cc1
GI50: 2.82 µM
TGI: 7.58 µM

CC(C)C[C@H](NC(=O)[C@@H](Cc1ccccc1)n1ccc(Nc2ccccc2)cc1=O)B(O)O
GI50: 0.236 µM
TGI: 1.29 µM

CC1(C)CC[C@]23CC[C@]4(C)[C@H](CC[C@@H]5[C@@]6(C)CCCNC(C)(C)[C@@H]6CC[C@]54C)[C@H]2[C@H]1OC3
GI50: 1.61 µM
TGI: 3.45 µM

COc1cccc(C(=O)NNc2nc(Cl)nc(N3CCN(C(c4ccccc4)c4ccccc4)CC3)n2)c1
GI50: 2.4 µM
TGI: 8.11 µM

CCCCCCCCCCCCCCCC(=O)NS(=O)(=O)OC[C@H]1O[C@@H](n2cnc3c(N)ncnc32)[C@H](O)[C@@H]1O
GI50: < 0.0328 µM

CC(C)c1cnc(-c2cc(Cl)ccc2F)cc1Nc1ccncc1C(=O)NC(CO)CO
GI50: 8.35 µM
TGI: 32.7 µM

CCN1C(=O)/C(=c2\sc3n(c2=O)C2C(NN=3)N(CC)C(=O)N2CC)c2ccccc21 (stereo not drawn)
GI50: 0.336 µM
TGI: 8.33 µM

O=C(O)c1ccc(CSc2nc3ccccc3[nH]2)cc1
GI50: > 100 µM
TGI: > 100 µM

CCc1ccc(Oc2c(-c3ccc(OCCc4cccc(C(F)(F)F)c4)cc3O)n[nH]c2C(F)(F)F)cc1
GI50: 1.87 µM
TGI: 7.96 µM

CS(=O)(=O)N1CCC(Nc2ncc(C(=O)c3c(F)cccc3F)c(N)n2)CC1
GI50: 12.4 µM
TGI: > 25 µM

CC1(C)N=C(N)N=C(N)N1c1ccc(OCC(=O)Nc2ccc(S(=O)(=O)F)cc2Cl)c(Cl)c1
GI50: 1.84 µM
TGI: > 100 µM

NS(=O)(=O)c1ccc(N=Nc2c(O)[nH]c3ccc(C(=O)NCCCn4ccnc4)cc23)cc1
GI50: > 25 µM
TGI: > 25 µM

COc1ccccc1CNCCCN1C(=O)c2ccc3c4c(ccc(c24)C1=O)C(=O)N(CCCNCCCCNCCCN)C3=O
GI50: 0.131 µM
TGI: 0.273 µM

Cc1[nH]c(C(=O)Nc2cccc(OC3CCNCC3)c2)c(Cl)c1Cl
GI50: 1.87 µM
TGI: 3.68 µM

Nc1c(C(=O)Nc2cccc(Cl)c2)sc2nc3c(cc12)C(O)CCC3 (stereo not drawn)
GI50: 0.257 µM
TGI: 15.2 µM

CS(=O)(=O)Nc1cc(-c2ccc3ncc(C#N)c(Nc4ccc(F)c(Cl)c4)c3c2)cnc1Cl
GI50: 0.0676 µM
TGI: 0.396 µM

COc1cc2c(Nc3ccc(-c4ccc(N)cc4)cc3)ncnc2c(OC)c1OC
GI50: 11.2 µM
TGI: 49 µM

COc1cc(C)c(-c2ccc(OC)c(=O)cc2C)c(OC)c1OC
TGI: > 100 µM

CC[C@]12C=CCN3CC[C@]4(C(=C(C(=O)OC)C1)Nc1cc5c(cc14)[C@@H]1[C@H](O5)[C@@H](O)[C@@]4(CC)CC(C(=O)OC)=C5Nc6ccccc6[C@@]56CCN1[C@@H]46)[C@@H]32
GI50: 0.147 µM and 0.183 µM
TGI: 1.54 µM and 1.62 µM

Cn1cc(-c2csc(-c3ccccc3)n2)c2cccnc21
GI50: 14.2 µM
TGI: 48.4 µM

CC[C@]12C=CCN3CC[C@@]4(c5ccc(OC)cc5N(C)[C@H]4[C@@](O)(C(=O)OC)[C@@H]1OC(=O)CCC(=O)O[C@H]1CC[C@H]4[C@@H]5CCC6=CC(=O)CC[C@@H]6[C@H]5CC[C@]14C)[C@@H]32
GI50: 1.42 µM
TGI: 5.9 µM

Cc1ccc(C2=NN(c3ccc(S(=O)(=O)NC(=O)NCc4ccccc4)cc3)C(c3ccc(N(C)C)cc3)C2)c(C)c1 (stereo not drawn)
GI50: 2.36 µM
TGI: 6.11 µM

Clc1nc(Cl)c2ncn(-c3ccccc3)c2n1
GI50: 2.71 µM
TGI: 8.39 µM
